The source of these data is US20050032896A1, “Use of synthetic retinoic acid in form of 13-cis vitamin A for treatment of autism” (priority 2002, published 2005).

Bounds are passed on as bounds.

Assay type in all cases: in vivo, human
The test system of one series is symptoms of autism. The series can be described thus: Oral treatment of an autistic subject, observed symptoms of autism. The text has this:
The patient in the present example is a child, weighs approximately 60 pounds, and is characterized by the symptoms of deficiencies in short term memory, inadequate independent problem solving skills for their age, deficient spontaneous verbalizations, utterances of diminished length, infrequent request to interact with family members and friends, insufficient capacity to master the complexity of play schemes for their age, and a tendency toward abnormal emotional responses (i.e. laughing when someone is seriously hurt in a movie, not offering assistance to family members when hurt, and not laughing along with siblings while watching cartoons, but instead tensing and becoming overly excited).
The subject weighing approximately 60 pounds was given a dosage of synthetic retinoic acid in the form of 13-cis vitamin A in amounts from about […] to about 40 mg per 60 lbs of body weight per day. […] Improvements in lessening the symptoms associated with the autism disorder were noted as early as 10 days into the treatment, with solid gains noted by the 17th day into the treatment.
(§1) As an example, the improvements in relief or elimination of symptoms of autistic disorder after about 17 days of administering synthetic retinoic acid in the form of 13-cis vitamin A at dosage levels of from about 20 mg every other day to about 40 mg per day, auditory evoked potential (AEP) responses were given before administering the mentioned dosage and after administration of the dosage regimen.

The next series concerns synaptic activity. Kind of series: Auditory evoked potential (AEP) responses before and after the dosage regimen. Particulars: after the dosage regimen versus before. The protocol:
as §1

Series [1] is described as follows: Blood analysis for retinoic acid content after oral vitamin A palmitate, second study 1999 to 2000. The following applies: autistic subject; oral 20 mg every other day for two weeks, then 40 mg per day up to 5 months. How it is done:
In a second study conducted in a period from 1999 to 2000, the autistic subject was orally given retinoic acid in the form of […] in an amount of 20 mg every other day for two weeks, and thereafter the dosage was increased to 40 mg per day for a period up to 5 months. […] Although there are numerous cis-trans isomers of vitamin A, there is no possibility for cis-trans isomerism about the cyclohexane double bond because the ring contains only 6 atoms. There are four carbon-carbon double bonds in the chain of atoms attached to the substituted cyclohexane ring, and each has the potential for cis-trans isomerism. Therefore, there are 2×2×2×2, or 16, possible cis-trans isomers for vitamin A. [drawing 1]

Series [2] is described as follows: Blood analysis for retinoic acid content after oral vitamin A palmitate, first vitamin A study 1996. The following applies: autistic subject; vitamin A palmitate day 1=0, day 2=25,000 IU, day 3 through day 7=50,000 IU. The protocol:
In the first vitamin A study in 1996, a sample of the autistic subjects blood was analyzed for retinoic acid content on the belief that there was a deficiency of retinoic acid. At this time, the subject had been receiving up to about 50,000 IU dose of vitamin A palmitate, wherein day 1=0, day 2=25,000 IU and day 3 through day 7=50,000 IU. The RDA is 5,000 IU per day.

The mark [3] stands for this setting: 20 mg every other day for two weeks, then 40 mg per day, oral.
[4] abbreviates: autistic subject, oral dosage regimen.

Take `CC1=C(/C=C/C(C)=C/C=C/C(C)=C\C(=O)O)C(C)(C)CCC1`: in the series on symptoms of autism (setting [3]), the “time into treatment at which improvements in symptoms were first noted” value was found to be 10 days and the “time into treatment at which solid gains were noted” value was at most 17 days. Besides, in the series on symptoms of autism (after the dosage regimen for between about 10 and 17 days), the “language and cognitive functions” value was “noted improvement in language and cognitive functions”. Further, in the series on symptoms of autism (setting [4]), the “capability to master the complexity of play schemes” value was “increase in the capability to master the complexity of play schemes”; the “frequency of request to interact with family members and friends” value was “increase in the frequency of request to interact with family members and friends”; the “independent problem solving skills” value is reported as “improvement in independent problem solving skills”; the length of utterances result is listed as “increase in the length of utterances”. In the series with symptoms of autism (setting [4]), the short term memory entry was “Improvement in short term memory”, the spontaneous verbalizations result is given as “increase in spontaneous verbalizations” and the “tendencies towards more normalized emotional responses” value is “improvement in tendencies towards more normalized emotional responses”. For the same compound, in the series on symptoms of autism (for two weeks, thereafter increased to 40 mg per day, person, approx. 60 pounds, oral), the “optimal dose for lessening the symptoms of autism” value is listed as “about 20 mg per 60 lbs of body weight every other day”. The “synaptic activity recorded by audio evoked potentials (AEP)” value with synaptic activity is recorded as “increase in synaptic activity”.
Take `CCCCCCCCCCCCCCCC(=O)OC/C=C(C)/C=C/C=C(C)/C=C/C1=C(C)CCCC1(C)C` [vitamin A palmitate]: in series [1], the “retinoic acid content in blood samples” value is given as “contained no retinoic acid”. In series [2], the “retinoic acid content in blood” value was “no retinoic acid could be detected”.
